From patent US7994185B2, “Benzene sulfonamide thiazole and oxazole compounds” (Glaxo Smith Kline LLC, priority 2008, dated 2011) come the findings set out here.

Assay [1] relates to Human melanoma cancer cells (SK-MEL-28). The assay can be described thus: Cell growth inhibition assay (CellTiter-Glo), SK-MEL-28. Format: cell-based. Particulars: SK-MEL-28, Table 3b, later runs, average for the one or more runs, categorized, read-out: IC50 for SK-MEL-28.
The test system of assay [2] is Human colon tumor cells (Colo205). The experiment in a line: Cell growth inhibition assay (CellTiter-Glo), Colo205. Format: cell-based. Particulars: COLO 205, Table 2b, later runs, average for the one or more runs, categorized, read-out: IC50 for Colo205. Summed up:
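Read-out was CellTiter-Glo luminescence (total ATP as a cell-number surrogate), expressed as % inhibition against DMSO vehicle wells. Before that, cells grown in RPMI/10% FBS were treated for 3 days at 37 °C with ten 1:3-spaced compound concentrations, final DMSO 0.2%.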
A general note: ATP-based viability assays read luminescence as a measure of living cells.

For assay [3], the target named is T1, BRAFV600E full-length (amino acids 2-766) (Homo sapiens, UniProt P15056, V600E).
T1 construct: His6-tagged BRAFV600E full-length (amino acids 2-766); His6; made in house; host or cells: baculovirus expression system (insect cells)
The experiment in a line: B-Raf Accelerated MEK ATPase assay (BRAMA). Format: biochemical. Particulars: later runs, average pIC50 for the one or more runs, categorized; for pIC50: B-Raf pIC50, Table 1b; for IC50: Table 1b, read-out: B-Raf pIC50 (converted). In outline: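 Coupled-enzyme readout: ADP generated by MEK-mediated ATP hydrolysis, uncoupled from ERK phosphorylation, is linked to NADH oxidation through pyruvate kinase and lactate dehydrogenase.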

Structures are written as SMILES. pIC50: −log10 of the molar value. Structures can show the parent of a compound that is named as a salt. Where two headings read alike, the source gives them in different places.

T1 sequence (P15056 2-766 V600E): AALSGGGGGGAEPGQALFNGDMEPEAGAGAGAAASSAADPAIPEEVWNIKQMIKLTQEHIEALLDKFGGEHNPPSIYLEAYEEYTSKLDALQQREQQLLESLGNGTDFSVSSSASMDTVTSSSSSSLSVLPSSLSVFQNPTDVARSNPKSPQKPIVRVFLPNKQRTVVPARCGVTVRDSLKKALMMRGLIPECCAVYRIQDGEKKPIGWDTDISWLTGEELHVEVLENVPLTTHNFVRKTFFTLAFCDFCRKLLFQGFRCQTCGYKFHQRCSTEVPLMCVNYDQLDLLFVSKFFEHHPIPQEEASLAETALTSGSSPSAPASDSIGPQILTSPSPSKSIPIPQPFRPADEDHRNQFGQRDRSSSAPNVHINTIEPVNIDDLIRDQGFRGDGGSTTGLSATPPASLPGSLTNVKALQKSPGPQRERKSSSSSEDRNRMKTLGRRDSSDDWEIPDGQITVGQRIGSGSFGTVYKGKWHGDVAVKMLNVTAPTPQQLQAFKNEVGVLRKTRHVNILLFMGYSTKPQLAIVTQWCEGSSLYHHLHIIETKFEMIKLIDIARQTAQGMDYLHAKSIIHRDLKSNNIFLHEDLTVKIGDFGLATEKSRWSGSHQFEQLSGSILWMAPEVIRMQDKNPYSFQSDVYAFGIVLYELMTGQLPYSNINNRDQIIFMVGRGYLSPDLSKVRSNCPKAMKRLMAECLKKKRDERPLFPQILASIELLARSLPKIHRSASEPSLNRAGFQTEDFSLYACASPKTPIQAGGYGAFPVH

The pIC50 is the IC50 on a negative log10 scale, so that one unit is a factor of ten. With `CC(C)(C)c1nc(-c2cccc(NS(=O)(=O)c3ccoc3)c2F)c(-c2ccncn2)s1` [Example 256, N-{3-[2-(1,1-dimethylethyl)-5-(4-pyrimidinyl)-1,3-thiazol-4-yl]-2-fluorophenyl}-3-furansulfonamide], the pIC50 was greater than 7.00 in assay [1], greater than 7.00 in assay [2] and no less than 8.50 in assay [3].

Take `CC(C)(C)c1nc(-c2c(F)ccc(NS(=O)(=O)c3cc(F)ccc3F)c2F)c(-c2ccnc(N)n2)s1` [Example 258, N-{3-[5-(2-amino-4-pyrimidinyl)-2-(1,1-dimethylethyl)-1,3-thiazol-4-yl]-2,4-difluorophenyl}-2,5-difluorobenzenesulfonamide]: the pIC50 was greater than 7.00 in assay [1], greater than 7.00 in assay [2] and no less than 8.50 in assay [3].

Consider `CC(C)(C)c1nc(-c2cccc(NS(=O)(=O)c3ccco3)c2Cl)c(-c2ccnc(N)n2)s1` [Example 259, N-{3-[5-(2-amino-4-pyrimidinyl)-2-(1,1-dimethylethyl)-1,3-thiazol-4-yl]-2-chlorophenyl}-2-furansulfonamide], for which the results for the pIC50 in assay [1], in assay [2] and in assay [3] were greater than 7.00, greater than 7.00 and no less than 8.50, respectively.

With `Cc1nccc(-c2sc(C(C)(C)C)nc2-c2c(F)ccc(NS(=O)(=O)c3cc(F)ccc3F)c2F)n1` [Example 262, N-{3-[2-(1,1-dimethylethyl)-5-(2-methyl-4-pyrimidinyl)-1,3-thiazol-4-yl]-2,4-difluorophenyl}-2,5-difluorobenzenesulfonamide], the values for the pIC50 in assay [1], in assay [2] and in assay [3] were greater than 7.00, greater than 7.00 and no less than 8.50, respectively.

Take `Cc1nccc(-c2sc(C(C)(C)C)nc2-c2cccc(NS(=O)(=O)c3ccco3)c2Cl)n1` [Example 263, N-{2-chloro-3-[2-(1,1-dimethylethyl)-5-(2-methyl-4-pyrimidinyl)-1,3-thiazol-4-yl]phenyl}-2-furansulfonamide]: the negative logarithm of the IC50 (pIC50) in assay [1] was 6.00 to 7.00; in assay [2], 6.00 to 7.00; in assay [3], no less than 8.50.

Consider `CC(C)(C)c1nc(-c2cccc(NS(=O)(=O)c3ccoc3)c2Cl)c(-c2ccnc(N)n2)s1` [Example 264, N-{3-[5-(2-amino-4-pyrimidinyl)-2-(1,1-dimethylethyl)-1,3-thiazol-4-yl]-2-chlorophenyl}-3-furansulfonamide], for which the negative-log IC50 (pIC50) in assay [1] was greater than 7.00; in assay [2] it was greater than 7.00; in assay [3], no less than 8.50.

Turning to `Nc1nccc(-c2sc(N3CCOCC3)nc2-c2cccc(NS(=O)(=O)c3ccoc3)c2Cl)n1` [Example 266, N-{3-[5-(2-amino-4-pyrimidinyl)-2-(4-morpholinyl)-1,3-thiazol-4-yl]-2-chlorophenyl}-3-furansulfonamide], the results for the negative-log IC50 (pIC50) in assay [1], in assay [2] and in assay [3] were greater than 7.00, greater than 7.00 and no less than 8.50, respectively.

Regarding `Nc1nccc(-c2sc(N3CCOCC3)nc2-c2cccc(NS(=O)(=O)c3ccoc3)c2F)n1` [Example 267, N-{3-[5-(2-amino-4-pyrimidinyl)-2-(4-morpholinyl)-1,3-thiazol-4-yl]-2-fluorophenyl}-3-furansulfonamide], the negative-log IC50 (pIC50) in assay [1] is 6.00 to 7.00; in assay [2] it was 6.00 to 7.00; in assay [3], no less than 8.50.

For `O=S(=O)(Nc1cccc(-c2nc(N3CCOCC3)sc2-c2ccncn2)c1Cl)c1ccoc1` [Example 269, N-{2-chloro-3-[2-(4-morpholinyl)-5-(4-pyrimidinyl)-1,3-thiazol-4-yl]phenyl}-3-furansulfonamide], the results for the negative-log IC50 (pIC50) in assay [1], in assay [2] and in assay [3] were 6.00 to 7.00, greater than 7.00 and no less than 8.50, respectively.

For `Cc1nccc(-c2sc(C(C)(C)C)nc2-c2cccc(NS(=O)(=O)c3ccoc3)c2Cl)n1` [Example 270, N-{2-chloro-3-[2-(1,1-dimethylethyl)-5-(2-methyl-4-pyrimidinyl)-1,3-thiazol-4-yl]phenyl}-3-furansulfonamide], the figures for the pIC50 in assay [1], in assay [2] and in assay [3] were 6.00 to 7.00, 6.00 to 7.00 and no less than 8.50, respectively.

Turning to `Cc1nccc(-c2sc(N3CCOCC3)nc2-c2cccc(NS(=O)(=O)c3ccoc3)c2Cl)n1` [Example 271, N-{2-chloro-3-[5-(2-methyl-4-pyrimidinyl)-2-(4-morpholinyl)-1,3-thiazol-4-yl]phenyl}-3-furansulfonamide], the results for the pIC50 in assay [1] and in assay [2] were greater than 7.00 and 6.00 to 7.00, respectively. Also, the IC50 in assay [3] was 0.00316 to 0.0316 µM.

On to `Cc1nccc(-c2sc(N3CCOCC3)nc2-c2cccc(NS(=O)(=O)c3ccoc3)c2F)n1` [Example 272, N-{2-fluoro-3-[5-(2-methyl-4-pyrimidinyl)-2-(4-morpholinyl)-1,3-thiazol-4-yl]phenyl}-3-furansulfonamide], for which the pIC50 in assay [1] is greater than 7.00; in assay [2] it was 6.00 to 7.00. Further, in assay [3], the IC50 was 0.00316 to 0.0316 µM.

In the case of `CC(C)(C)c1nc(-c2cccc(NS(=O)(=O)c3ccccn3)c2F)c(-c2ccnc(N)n2)s1` [Example 278, N-{3-[5-(2-amino-4-pyrimidinyl)-2-(1,1-dimethylethyl)-1,3-thiazol-4-yl]-2-fluorophenyl}-2-pyridinesulfonamide], the pIC50 in assay [1] and in assay [2] was 6.00 to 7.00 throughout. Besides, in assay [3], the IC50 is 0.00316 to 0.0316 µM.

`Nc1nccc(-c2sc(C3CCOCC3)nc2-c2cccc(NS(=O)(=O)c3cnccn3)c2F)n1` [Example 280, N-{3-[5-(2-amino-4-pyrimidinyl)-2-(tetrahydro-2H-pyran-4-yl)-1,3-thiazol-4-yl]-2-fluorophenyl}-2-pyrazinesulfonamide]: the pIC50 was 6.00 to 7.00 in assay [1], 6.00 to 7.00 in assay [2] and no less than 8.50 in assay [3].

Turning to `Nc1nccc(-c2sc(C3CCOCC3)nc2-c2cccc(NS(=O)(=O)c3ccoc3)c2F)n1` [Example 281, N-{3-[5-(2-amino-4-pyrimidinyl)-2-(tetrahydro-2H-pyran-4-yl)-1,3-thiazol-4-yl]-2-fluorophenyl}-3-furansulfonamide], the values for the negative-log IC50 (pIC50) in assay [1], in assay [2] and in assay [3] were greater than 7.00, greater than 7.00 and no less than 8.50, respectively.

In the case of `Cn1nccc1S(=O)(=O)Nc1cccc(-c2nc(C(C)(C)C)sc2-c2ccnc(N)n2)c1F` [Example 282, N-{3-[5-(2-amino-4-pyrimidinyl)-2-(1,1-dimethylethyl)-1,3-thiazol-4-yl]-2-fluorophenyl}-1-methyl-1H-pyrazole-5-sulfonamide hydrochloride], the pIC50 is 5.00 to 6.00 in assay [1], 6.00 to 7.00 in assay [2] and 6.00 to 7.50 in assay [3].

For `Cn1cc(S(=O)(=O)Nc2cccc(-c3nc(C(C)(C)C)sc3-c3ccnc(N)n3)c2F)cn1` [Example 283, N-{3-[5-(2-amino-4-pyrimidinyl)-2-(1,1-dimethylethyl)-1,3-thiazol-4-yl]-2-fluorophenyl}-1-methyl-1H-pyrazole-4-sulfonamide hydrochloride], the pIC50 in assay [1] and in assay [2] was 6.00 to 7.00 each time. In addition, in assay [3], the IC50 was 0.00316 to 0.0316 µM.

`Cn1ccc(S(=O)(=O)Nc2cccc(-c3nc(C(C)(C)C)sc3-c3ccnc(N)n3)c2F)c1` [Example 284, N-{3-[5-(2-amino-4-pyrimidinyl)-2-(1,1-dimethylethyl)-1,3-thiazol-4-yl]-2-fluorophenyl}-1-methyl-1H-pyrrole-3-sulfonamide hydrochloride]: the pIC50 was 6.00 to 7.00 in assay [1], 6.00 to 7.00 in assay [2] and 6.00 to 7.50 in assay [3].

`Cn1ccc(S(=O)(=O)Nc2cccc(-c3nc(C4CCOCC4)sc3-c3ccnc(N)n3)c2F)c1` [Example 285, N-{3-[5-(2-amino-4-pyrimidinyl)-2-(tetrahydro-2H-pyran-4-yl)-1,3-thiazol-4-yl]-2-fluorophenyl}-1-methyl-1H-pyrrole-3-sulfonamide hydrochloride]: the figures for the negative-log IC50 (pIC50) in assay [1], in assay [2] and in assay [3] were 5.00 to 6.00, 6.00 to 7.00 and 6.00 to 7.50, respectively.

For the molecule `Cn1cc(S(=O)(=O)Nc2cccc(-c3nc(C4CCOCC4)sc3-c3ccnc(N)n3)c2F)cn1` [Example 286, N-{3-[5-(2-amino-4-pyrimidinyl)-2-(tetrahydro-2H-pyran-4-yl)-1,3-thiazol-4-yl]-2-fluorophenyl}-1-methyl-1H-pyrazole-4-sulfonamide hydrochloride], the pIC50 in assay [1] and in assay [2] was 6.00 to 7.00 each time. Further, the IC50 in assay [3] was 0.00316 to 0.0316 µM.

Turning to `Cn1ccnc1S(=O)(=O)Nc1cccc(-c2nc(C(C)(C)C)sc2-c2ccnc(N)n2)c1F` [Example 287, N-{3-[5-(2-amino-4-pyrimidinyl)-2-(1,1-dimethylethyl)-1,3-thiazol-4-yl]-2-fluorophenyl}-1-methyl-1H-imidazole-2-sulfonamide hydrochloride], the pIC50 in assay [1] and in assay [2] was 6.00 to 7.00 throughout. Also, in assay [3], the IC50 was 0.00316 to 0.0316 µM.

With `CC(C)(CO)c1nc(-c2cccc(NS(=O)(=O)c3c(F)cccc3F)c2F)c(-c2ccnc(N)n2)s1` [Example 295, N-{3-[5-(2-amino-4-pyrimidinyl)-2-(2-hydroxy-1,1-dimethylethyl)-1,3-thiazol-4-yl]-2-fluorophenyl}-2,6-difluorobenzenesulfonamide], the pIC50 in assay [1] was greater than 7.00; in assay [2] it was greater than 7.00; in assay [3], no less than 8.50.
